From patent US20190038587A1, “DNA Methylation Landscapes of Post-Traumatic Stress Disorder (PTSD) Susceptibility and Resilience and Novel Therapeutics of PTSD Derived Thereof” (priority 2016, published 2019)

Columns and labels:
long term potentiation = details: literature; cited from earlier work
[1] = test system: susceptible rats (PTSD-like); experiment: Rat PTSD model (predator scent, incubation of fear): freezing behavior in open field after third reminder; type: in vivo, Sprague-Dawley rats
Experimental: Adult male Sprague-Dawley rats (250-270 gr; Harlan, Rehovot, Israel) were used and housed under conditions of constant temperature (22° C.) and 50% humidity, with a 12-h light-12-h dark cycle. The rats were allowed to habituate to the animal house for 7 days (acclimation). They were housed three per cage, two experimental rats together with a third companion rat. The same three rats remained together until the end of the study. Food and water were provided ad libitum. All experiments were performed between 08:00 and 14:00 in daylight. All animal procedures were approved by the Bar-Ilan University Animal Care Committee and were carried out in accordance with the NIH Guide for the Care and Use of Laboratory Animals.
The model used in this research is based on Kesner et al., 2009^32. This model consists of several stages encompassing […], detailed below and depicted in FIG. 1. The animals are analyzed according to three clinically-relevant clusters of symptoms: manifestation of freezing behavior when (a) situated alone in an open field paradigm (re-experiencing), (b) situated with a habituated companion (social interaction) and (c) after exposure to a hyperarousal event^33. The range of each measured behavioral procedure was determined for all animals after the base-line (week 3). The data collected at baseline was analyzed and the explore procedure was applied using SPSS 11 to define the range of the population. The upper and lower levels of this range were treated as ‘normal baseline’ and alterations from this range were used to define PTSD-like behavior (susceptible).
Each experimental or naive rat was habituated for 7 days to their home cage (the first week of the habituation). For the first stage of the experiment each experimental or naive rat was habituated for 7 days to an open field apparatus together with a companion rat from their home cage, 5 min per day for 7 days (the second week of the experiment). The open field apparatus was a 90×90×30 cm Plexiglas box, which was placed under a camera. The video and computer equipment were situated in a separate room where all video and observation analyses were performed.
After 14 days (Day 1) of habituation, baseline freezing levels of experimental and naive rats were measured prior to stress exposure. Behavioral parameters and measurements are described below (Behavioral Measurements section).
One week later (Day 7), experimental rats were exposed to stress, i.e. predator scent. Individual rats were placed for 30 min in a clean plastic cylinder (diameter: 30 cm, height: 33 cm) containing 125 ml of well-soiled cat litter, used by a cat during the 24 h prior to the experiment. After exposure to stress, each rat was transferred to the open field, and three behavioral parameters were measured (as described in the Behavioral Measurements section below). The cylinder was cleaned between testing of each rat. Temperature and humidity conditions in the stress exposure area were identical to those in the housing cages and open field. The companion rats were not exposed to stress, and were housed in separate cages in a separate housing area during all experiments. The same cat was used for the litter introduced during initial exposure.
One week later (Day 14), rats were re-exposed for 30 minutes to litter with the same texture, but without the cat scent. Behavioral parameters were subsequently tested (as described below).
Three weeks later (Day 35), rats were again exposed for 30 min to litter with the same texture and without cat scent. Behavioral parameters were subsequently tested (as described below). Behavioral data for this testing stage were analyzed according to the division criteria detailed below. Based on the obtained results, experimental rats were defined as either susceptible or resilient.
After exposure to cat litter, each rat was placed in the open field for measurement of PTSD-like behavior. […]

RORA mRNA = RORA mRNA expression in nucleus accumbens following the third reminder; type: in vivo, Sprague-Dawley rats; details: NAc following Re3; SAM vs saline; FIG. 6C
Experimental: (§1) Brains were removed immediately after exposure to litter with cat scent immediately after Re3. Each brain was placed in a Perspex brain matrix and sliced into 1.0 mm segments. The NAc was punched out using a micro dissecting needle of 13-14 G. Brain tissue was frozen at −70° C. until DNA and RNA extraction.
The retinoic biosynthesis and degradation pathway was also enriched with differentially methylated genes. In the susceptible group there was an enrichment in downstream targets of the RAR-Related Orphan Receptor A (RORA), however the impact on level of activity of this pathway could not be derived from this analysis (FIG. 6B). Therefore, the levels of RORA mRNA expression in the different groups was first determined. RORA mRNA expression levels were higher in either control or resilient animals treated with either saline or SAM than in susceptible animals (*p<0.05, *p<0.05 and **p<0.01 respectively) (FIG. 6C), consistent with the possibility that this gene is involved in the pathology of PTSD. […] Therefore, it was hypothesized that the RORA pathway is involved in the hyperarousal behavior which is resistant to SAM's treatment and characteristic of the susceptible PTSD group. The correlation between the mRNA expression of RORA and the three behavioral tests was first measured; as hypothesized, only the hyperarousal behavior was correlated with the mRNA expression of RORA (FIG. 6D). […]

[2] = test system: Beta estradiol downstream pathway; experiment: Pathway analysis of upstream regulators of differentially methylated genes; parameters: species or system Sprague-Dawley rats; details: susceptible animals treated with SAM relative to susceptible treated with saline; FIG. 6B
Text: If DNA methylation plays a causal role in PTSD, comparative analysis of upstream regulators of genes whose DNA methylation is different in control, susceptible, resilient and SAM treated animals could reveal important putative new pathways and networks involved in PTSD molecular pathology that are candidates for therapeutic intervention (FIG. 6A). […] Other up-regulators of differentially methylated genes are presented in the Heatmap. These pathways are relevant to anxiety and memory pathways such as: sex hormones, glucocorticoid and different cytokines.
In reference to FIG. 6, “A” is coloring representing the p value of each group for the different “upstream-regulator” regulated pathways. Light blue represents low activation and dark blue represents high activation of the pathway. Grey represents pathways that didn't change. Yellow lines and boxes represent sex hormone dependent pathways, blue lines and boxes represent cytokine regulated pathways, pink lines and boxes represent glucocorticoids regulated pathways and green lines and boxes represent retinoic acid (vitamin A) regulated pathways. “B” is circular heat maps representing the different pathways that are influenced by a specific “upstream-upregulator” and are altered in PTSD susceptible and resistant animals. […]

[3] = test system: DNA methylation profile in the NAc; experiment: Capture bisulfite sequencing and DNA methylation mapping of nucleus accumbens after SAM treatment; type: in vivo, Sprague-Dawley rats
Experimental: as §1
Genomic DNA was extracted using All Prep DNA/RNA Micro Kit, Qiagen (Hilden, Germany)
The SeqCap Epi Enrichment System was used for target bisulfite sequencing of promoters and enhancers in the rat genome. The rat (rn4) target probes were custom designed by utilizing H3K4me1 and H3K4me3 (indicating enhancers and promoters respectively) signals from mouse samples as there is no currently available ChIP data of H3K4me1 and H3K4me3 with respect to the rat species. PuttivH3K4me1 and me3 were selected by mapping and aligning genomic fragments from mouse to the rat and retaining any fragments that share a high similarity and the subsequent associated signals. A total of 53374 target probes have been designed spanning 48072248 base pairs of sequence with a mean probe size of 900 bp. Biotinylated target probes were designed for both strands of bisulfite converted genomic DNA. Bisulfite treated genomic DNA is ligated to methylated NGS adaptors, hybridized to the biotinylated oligonucleotide probes which is followed by a series of washes of off-target DNA sequences and unbound DNA. The resulting isolated specific DNA then undergoes PCR amplification for downstream sequencing on Illumina Hiseq 2000 sequencer. Capture and hybridization is performed as a service for fee by ICRM in Montreal licensed by Roche/Nimblegen. The following bioinformatics workflow is used in the lab. Quality control is done using FastQC to assess sequencing scores and other quality metrics. If necessary, trimming of raw file is performed using Trimmomatic to remove low scoring sequencing results and/or adapter contents. Sequences are aligned to rn4 rat reference genome using Bsmap v2.89. A typical alignment rate of 90%-95% is achieved (30× coverage). The resulting sequencing alignment file (SAM) is converted to binary alignment format (BAM) for downstream analysis and filtering. BAM files are split, merged, and sorted by strand for additional downstream filtering and analysis. Duplicate reads within the BAM files are removed via Picard Tools (v1.93, BROAD institute) strand-specifically and the separate BAM files are merged back together and examined by Bamtools to assess whether the sequences are properly mapped to genome, whether both paired end reads exist (for paired end sequencing), and whether paired end reads are properly paired to each other (for paired end sequencing). Using the final BAM file, methylation ratios and coverage is recovered by provided scripts within Bsmap as well as methylation context. Annotation of genomic locations is performed by HOMER. Computation of differential methylation sites and tiled windows of differentially methylated regions was performed using a logistic regression method with the Methylkit R package in Bioconductor1. FDR adjusted P value significance threshold is held at <0.2.
NAcs were isolated from the animals (n=4-7 per group) following the third reminder and DNA and RNA were extracted as described in the methods. DNA was bisulfite converted, enriched using capture arrays for all predicted promoters and enhancers in the rat genome and was then subjected to next generation sequencing. […]

[4] = susceptible-SAM vs susceptible-saline rats, threshold >10, Q value 0.2, FIG. 4A

**Q.** For `Nc1ncn([C@H]2C[C@H](O)[C@@H](CO)O2)c(=O)n1` [5-aza-2-deoxycytidine], which “effect on long term potentiation” value (long term potentiation) is on record?
**A.** The value was “inhibited long term potentiation”.

**Q.** For `C[S+](CC[C@H](N)C(=O)O)C[C@H]1O[C@@H](n2cnc3c(N)ncnc32)[C@H](O)[C@@H]1O` (stereo partly drawn) [SAM, S-adenosylmethionine], which “freezing behavior during the 'exploration' test” value ([1]; Embodiment 2, susceptible rats, SAM 25 mg/kg i.p. 24 h and 1 h before Re-3, vs susceptible-saline, FIG. 3A) is on record?
**A.** Its value is “significantly decreased”.

**Q.** What about the “freezing behavior during the 'social interaction' test” value ([1]; Embodiment 2, susceptible rats, SAM 25 mg/kg i.p. 24 h and 1 h before Re-3, vs susceptible-saline, FIG. 3B) of the same compound?
**A.** Its value is “significantly decreased”.

**Q.** And the “freezing behavior during the 'hyperarousal' test” value ([1]; Embodiment 2, susceptible rats, SAM 25 mg/kg i.p. 24 h and 1 h before Re-3, vs susceptible-saline, FIG. 3C)?
**A.** Its value is “no difference in freezing behavior”.

**Q.** And the “freezing behavior during the 'exploration' test” value ([1]; Embodiment 4, susceptible rats, SAM 25 mg/kg and/or retinoic acid 2 mg/kg i.p. 24 h and 1 h before Re-3, vs susceptible-RA and susceptible-saline, FIG. 7A)?
**A.** Its value is “significantly decreased”.

**Q.** And the “freezing behavior during the 'social interaction' test” value ([1]; Embodiment 4, susceptible rats, SAM 25 mg/kg and/or retinoic acid 2 mg/kg i.p. 24 h and 1 h before Re-3, vs susceptible-RA and susceptible-saline, FIG. 7B)?
**A.** Its value is “significantly decreased”.

**Q.** And the “fold change in freezing behavior in 'exploration' and 'social interaction' tests (from Re-2 to Re-3)” value ([1]; susceptible-treated rats, FIG. 3D-G)?
**A.** Its value is “effective in reducing these behaviors”.

**Q.** What about the “fold change in freezing behavior in the 'hyperarousal' test (from Re-2 to Re-3)” value ([1]; susceptible-treated rats, FIG. 3H-I) of the same compound?
**A.** Its value is “ineffective in changing freezing behavior”.

**Q.** What about the “level of expression of RORA (mRNA)” value (RORA mRNA) of the same compound?
**A.** The value was “no effect”.

**Q.** What about the “state of activity of Beta estradiol downstream pathway” value [2] of the same compound?
**A.** The value was “inhibited”.

**Q.** And the “CGs sites differentially methylated in the susceptible animals and reversed by the SAM treatment” value ([3]; FIG. 4A-B)?
**A.** Its value is 140 CGs sites.

**Q.** What about the “CG sites differentially methylated in both the susceptible and the resilient rats affected by SAM” value ([3]; FIG. 4C-D) of the same compound?
**A.** Its value is 38 CG sites.

**Q.** And the “fraction of total susceptible sites reversed by SAM treatment” value ([3]; sites altered in susceptible rats relative to controls)?
**A.** Its value is 30%.

**Q.** And the “CGs sites that were de-methylated” value [3, 4]?
**A.** The value was 599 CGs sites.

**Q.** And the “CGs sites that were hyper-methylated” value [3, 4]?
**A.** Its value is 363 CGs sites.
